In patent US9023998B2, “Near infrared fluorogen and fluorescent activating proteins for in vivo imaging and live-cell biosensing” (Carnegie Mellon University, priority 2013, dated 2015):

Tests used:
[1] = tested on: S. cerevisiae expressing mL9.3 or mL9.5 surface-tethered; test: Confocal imaging of yeast with surface-tethered FAPs; format: cell-based; conditions: 100 nM fluorogen, excitation 641 nm, emission 794/160
Source text: Plasmids pPNL6-mL9.3 and pPNL6-mL9.5 for yeast cell surface display were produced by PCR amplification of mL9.3 (SEQ. ID. NO. 23) and mL9.5 (SEQ. ID. NO. 24) from pPNL6-dL9.2 and pPNL6-dL9.5, respectively, using primers pCTCON2F (CGACGATTGAAGGTAGATACCCATACGACGTTCCAGACTACGCTCTGCAG) (SEQ. ID. NO. 29) and p6 mL9XRv (TCTCGATGCGGCCGCTTAAGACAAAACAGTAACTTTAGTACCACC) (SEQ. ID. NO. 30). Amplicons were digested with NheI and NotI prior to ligation into a like-digested pPNL6 vector backbone. Ligated plasmids were transformed into E. coli (NEB 10β) by heat-shock, and plasmids from single colonies were sequenced to verify identity. Upon verification, purified stocks of each plasmid were introduced into S. cerevisiae strain JAR200 via electroporation. Transformed cells were induced in the manner described in Szent-Gyorgyi, et al. 2008 for 96 hours prior to imaging. Cells were adhered to concanavalin A-coated glass-bottom dishes (MatTek Corporation) for 10 minutes at room temperature. […] Images of fluorescence (FIG. 12, NIR:794/160) were obtained by excitation with a 641 nm laser, and emission was collected through a 794/160 bandpass filter (Semrock) by an iXon3 EMCCD (DU897 BV). […]

[2] = tested on: HEK293 cells expressing dL9.5; test: Confocal imaging of HEK293 cells expressing dL9.5 in various cellular contexts; format: cell-based; conditions: HEK293; SKC728 100 nM, SKC602 50 nM
Source text: The expressed construct was imaged using an Andor Revolution XD spinning disk confocal (GFP 488:525/50, dL9.5 (SEQ. ID. NO. 3) 640:685/70 AND 640:794/160, 60×1.49 NA oil immersion objective) and the results are shown in FIG. 5. […] The fluorogen was not washed away prior to imaging.
Imaging conditions were similar to those described for obtaining FIG. 5.
CYTOPLASM. HEK293 cells were transfected with, and stably expressing the pCYdL9.5eGFP vector, were thawed from a cryostock and maintained in DMEM/10% FBS for four passages prior to fluorescence imaging procedures. Immediately prior to imaging, growth media was exchanged for HBSS (pH 7.4) supplemented with SKC602 (200 nM final concentration). The cells were allowed to recover at 37° C. with 5% CO2 for 20-30 minutes, and fluoromodule activity under in vivo conditions within the cytoplasm was imaged using an Andor Revolution XD spinning disk confocal microscope (60×1.49 NA oil immersion objective, excitation at 640 nm, emission in far-red: 685/70 filter, and NIR: 794/160 filter). The same cells were also imaged for eGFP activity (excitation at 488 nm, emission via 525/50 nm filter). […] In accordance with the fluoromodule emission spectrum shown in FIG. 2, this emission filter allows the microscope camera to detect a large portion of the fluoromodule emission, and consequently, the observed signal appears brighter. One must note that intensities cannot be directly compared between channels, due to considerations non-exclusively including: differences in excitation light intensities, exposure and capture times, the transmission profile of each emission filter, and the quantum efficiency of the iXON3 DU897 (back-illuminated) camera across the range of emitted wavelengths. An evenly distributed fluorescence signal is observed in these cells, with no bright foci that would indicate protein aggregation, and the fluoromodule signal intensity scales with that of eGFP.
PLASMA MEMBRANE. […]

Row | Structure (SMILES) | NIR fluorescence of fluorogen alone in non-expressing yeast [1] | Membrane permeance shown by subcellular labeling (plasma membrane exterior / mitochondrial matrix) [2]
1 | CN(C)c1ccc(/C=C/C(=C2C=CC(=[N+](C)C)C=C2)c2ccc(N(C)C)cc2)cc1 [SKC602, (E)-N-(4-(1,3-bis(4-(dimethylamino)phenyl)allylidene)cyclohexa-2,5-dien-1-ylidene)-N-methylmethanaminium] | do not cause NIR fluorescence in the absence of cognate FAP | membrane permeant
2 | CN(C)c1ccc(C(/C=C/c2ccc(N(C)CCCCC(=O)NC(CCS(=O)(=O)O)C(=O)O)cc2)=C2C=CC(=[N+](C)C)C=C2)cc1 (stereo not shown) [SKC728] | do not cause NIR fluorescence in the absence of cognate FAP | membrane impermeant
